Conditions: 298.15 K

CC(=O)Oc1ccccc1C(=O)O showed a solubility (mole fraction) (in 1,4-dioxane) of 0.126, a solubility (mole fraction) (in 2-ethylhexanol) of 0.0303 and a solubility (mole fraction) (in 2-methyl-1-butanol) of 0.0344. The solubility (mole fraction) (in 2-methyl-1-pentanol) was 0.0321, the solubility (mole fraction) (in 2-pentanol) was 0.0435 and the solubility (mole fraction) (in 3,7-dimethyl-1-octanol) was 0.0304. For the same compound, the solubility (mole fraction) (in 4-methyl-2-pentanol) was 0.0393, the solubility (mole fraction) (in MTBE) was 0.0401 and the solubility (mole fraction) (in THF) was 0.19. For the same compound, the solubility (mole fraction) (in dibutyl ether) was 0.00709, the solubility (mole fraction) (in diethyl ether) was 0.0353 and the solubility (mole fraction) (in diisopropyl ether) was 0.0122. For the same compound, the solubility (mole fraction) (in ethyl acetate) was 0.0458, the solubility (mole fraction) (in isobutanol) was 0.0319 and the solubility (mole fraction) (in isopentanol) was 0.0381. The solubility (mole fraction) (in isopropanol) was 0.0523, the solubility (mole fraction) (in methyl acetate) was 0.0529 and the solubility (mole fraction) (in methyl butyrate) was 0.0297. For the same compound, the solubility (mole fraction) (in n-butanol) was 0.0462, the solubility (mole fraction) (in n-butyl acetate) was 0.0335 and the solubility (mole fraction) (in n-decanol) was 0.0365. For the same compound, the solubility (mole fraction) (in n-heptanol) was 0.0389, the solubility (mole fraction) (in n-hexanol) was 0.0397 and the solubility (mole fraction) (in n-octanol) was 0.0358. The solubility (mole fraction) (in n-pentanol) was 0.0397, the solubility (mole fraction) (in n-pentyl acetate) was 0.0268 and the solubility (mole fraction) (in n-propanol) was 0.0498. For the same compound, the solubility (mole fraction) (in propylene carbonate) was 0.0313, the solubility (mole fraction) (in sec-butanol) was 0.0536 and the solubility (mole fraction) (in tert-amyl alcohol) was 0.0818. The solubility (mole fraction) (in tert-butanol) was 0.0684.

From BigSolDB 2.1
